Data as given in patent US11400160B2, “Multifunctional conjugates” (E.P.O.S IASIS Research and Development Limited, priority 2017, dated 2022).
Entries after “also recorded” stand apart in the source; their conditions may differ. Where two headings read alike, the source gives them in different places.

Key:
[1] = Binding to pre-loaded bone slices / hydroxyapatite after washing; details: pre-loaded whale dentine or osteologic slides, unbound drug washed away
Excerpt: In a separate experiment, pre-loaded bone slices (whale dentine) or commercial forms of hydroxyapatite (osteologic slides) with either free γ-tocopherol (γToc) or γ-tocopherol-bpp(OEt) (BP-γToc) and then washed away unbound drug.

[2] = system: mature osteoclasts isolated from human Giant Cell Tumours (GCT) of bone; test: Bone resorption by mature osteoclasts from Giant Cell Tumours of bone; format: cell-based; details: osteoclasts from human GCT of bone on whale dentine, 5 days
Excerpt: Human peripheral blood mononuclear cells (PBMCs) and the RAW264.7 murine monocytic cell line were differentiated into osteoclast-like cells in the presence of RANKL plus M-CSF and have been used as model systems of osteoclastogenesis. Osteoclast-like cells, from Giant Cell Tumours (GCT) of bone specimens from three independent donors were used to investigate the effect of compounds of the invention on the bone resorbing activity of mature osteoclasts.
To determine the effect of compounds of the invention on bone resorbing activity of mature osteoclast, cultured cells isolated from primary human Giant Cell Tumours of bone specimens were used. These cells were plated on whale dentine slices in 96-well plates at a density of 1×10^5/well and treated for 5 days with increasing concentrations of compounds of the invention. Medium and treatments were replaced on day three and pit formation determined on day 5.
Whale dentine slices will be washed in extran, rinsed with distilled water, washed in 70% ethanol and dried overnight. […] Images will be analysed using ImageQuant software and the area of resorption determined for each dentine slice (quadruplicate dentine slices for each treatment). Results are expected to be average resorption area +/− standard errors of the mean (SEM) and the significant differences between treatments will be determined using Students t-tests (2-tailed, unpaired).

MCF-7 cells = test: Cell viability, crystal violet colorimetric assay; format: cell-based; details: 72 hrs; for IC50: tested at 0.02-0.1 mM, unstarred values
Method: (§1) Immortalised osteolytic metastatic breast cancer cell lines, a) hormone-dependent MCF-7 and b) hormone refractory MDA-MB231, together with the daughter line MDA-MB231TXSA were incubated with 5 gradual concentrations of compounds of the invention as described below. Cell viability was assessed with the crystal violet colorimetric assay and IC50s were evaluated.
(§2) Medium was removed from cell cultures and cells were fixed with 4% v/v formaldehyde for 5 mins at room temperature. Formalin was then removed and CV added for 10 mins at room temperature followed by several washes with dsH2O. Samples were allowed to dry overnight. The following day, 10% acetic acid was added for 15 mins and optical density at 620 nm was measured. Optical densities versus compound concentrations were plotted in graphs and IC50s estimated by linear regression analysis using the WorkOut (VictorX4) software.
MCF-7, MDA-MB231 and MDA-MB231TXSA cells were seeded in 96-well-plates and allowed to attach overnight. […]
(§3) Cells were cultured in the presence of the compounds for 72 hrs and viability was assessed on day 3 by crystal violet assay. The cell lines were selected for their high bone metastatic potential. The fluorescently transfected line MB231TXSA, derived from line MB231 is also used in animal studies (WP7).

MDA-MB231 cells = test: Cell viability, crystal violet colorimetric assay; format: cell-based; details: 72 hrs; for IC50: tested at 0.02-0.1 mM
Method: as §1, §2
(§4) MCF-7, MDA-MB231 and MDA-MB231TXSA cells were seeded in 96-well-plates and allowed to attach overnight. The following day media were replaced with fresh media containing the following compounds: Both free tetraethyl methylbisphosphonate (bpp(OEt)) and bpp(OEt) in 1:1 combination with the free chromanol and the biphosphonate conjugates were tested at 5 gradual concentrations of: 0.02, 0.04, 0.06, 0.08 and 0.1 mM.
as §3

MDA-MB231TXSA cells = test: Cell viability, crystal violet colorimetric assay; format: cell-based; details: 72 hrs; for IC50: tested at 0.02-0.1 mM, read-out: IC50 values MB231-TXSA
Method: as §1, §2, §4, §3

Balb/c Nu/Nu mice = test: Intratibial injection of compounds, micro-CT trabecular bone volume; format: in vivo; details: 10 μl into tibial marrow space, 3 weeks, μCT; compared to the maternal BP compound; preliminary data; FIG. 8
Method: Four week old female Balb/c Nu/Nu mice were housed under pathogen free conditions, in accordance with the guidelines approved by the Institute of Medical and Veterinary Science animal ethics research committee. Mice were randomly assigned into 3 groups of 4 animals. The left tibia was wiped with 70% ethanol and a 26 gauge needle coupled to a Hamilton syringe, was inserted through the tibial plateau with the knee flexed and 10 μl of each drug injected into the marrow space. Mice were humanely killed 3 weeks post drug administration and bone morphometric parameters were assessed using high resolution micro-CT and histology.
• Group 1: Bpp(OEt) (BP) (20 μM) • Group 2: γ-Tocotrienol (20 μM) • Group 3: γ-Tocotrienol-BP conjugate (20 μM) Micro-Computer Tomography Analysis
Both the right and left tibiae of each animal were mounted in the CT specimen tube and placed securely into the SkyScan-1072 X-ray micro-CT Scanner (Aartselaar, Belgium). The program was commenced with magnification set to give scan slices of 5.2 microns. Three-dimensional (3D) images were generated using Cone-Beam reconstruction and 3D visualisation (Skyscan). Using the two dimensional (2D) images obtained from the micro-CT scan, the growth plate was identified and 750 sections, starting from the growth plate/tibial interface and moving down the tibia, were selected. […]

mouse neonatal calvariae = test: Calvarial organotypic bone growth assay (ex vivo); design: species or system mouse (Balb/c); details: ex vivo culture 10 days, FIG. 7; for bone formation in calvariae: above free BP or untreated
Method: Anexvivo model of cultured mouse neonatal calvariae to assess bone anabolic activity of each compound was performed as previously described by Garrett, I et al., (Methods Mol Med, 2003. 80: p. 183-198).
Briefly fifteen newborn, 4 day old Balb/c pubs were used for these experiments. Calvarial bones were dissected under sterile conditions and placed on sterile grids in 12 well plates containing culture media. Calvarial bones were cultured for 10 days in the presence of free γToc, BP-γToc or free BP. Bone morphogenetic protein 2 (BMP-2) was used as a positive control, with known bone anabolic activity in this assay.
Treatments were carried out in quadruplicate as shown below. Calvarial bones were embedded in paraffin wax and sections were stained with haematoxylin and eosin stain (H&E) and analysed using the nanozoom image analysis software.
• Untreated • Bpp(OEt) (BP) (15 μM) • BP (20 μM) • γ-Tocotrienol (15 μM) • γ-Tocotrienol (20 μM) • γ-Tocotrienol (100 μM) • BP-γ-tocotrienol conjugate (15 μM) • BP-γTocotrienol conjugate (20 μM) • BP-γ-Tocotrienol conjugate (100 μM) • BMP-2 (50 ng/ml)
New bone formation in treated calvariae was assessed by histological assessment of stained sections.

Row | binding to bone substrate / bone mineral [1] | EC50 (MCF-7 cells; Exp.1, * denotes EC50 value, read-out: EC50 value (starred) MCF-7) [µM] | IC50 (MCF-7 cells; Exp.2) [µM] | EC50 (MDA-MB231 cells; Exp.1, * denotes EC50 value, read-out: EC50 value (starred) MB231) [µM] | IC50 (MDA-MB231 cells; Exp.2) [µM] | IC50 (MDA-MB231TXSA cells; Exp.1) [µM] | IC50 (MDA-MB231TXSA cells; Exp.2, unstarred values) [µM] | IC50 (MCF-7 cells; Exp.1) [µM] | IC50 (MDA-MB231 cells; Exp.1, unstarred values) [µM] | EC50 (MDA-MB231TXSA cells; Exp.2, * denotes EC50 value, read-out: EC50 value (starred) MB231-TXSA) [µM] | Structure (SMILES) | bone resorption by already mature osteoclasts [2] | trabecular bone volume at the site of injection (Balb/c Nu/Nu mice) | bone formation in calvariae (mouse neonatal calvariae) | bone formation compared with free γToc and BMP-2 positive control (mouse neonatal calvariae; listed as BP-γToc)
1 | not | 439 | 128 | 312 | 55.7 | 97.4 | 233 | – | – | – | Cc1c(O)cc2c(c1C)O[C@](C)(CCC[C@H](C)CCC[C@H](C)CCCC(C)C)CC2 [γ-toc, γ-tocopherol, reference compound] | inhibited bone resorption | significant increase in trabecular bone volume | significantly increased bone formation | –
2 | selectively bound the substrate | – | 81.5 | – | 49.7 | 79.3 | – | 114 | 124 | 189 | CCOP(=O)(OCC)C(CCC(=O)Oc1cc2c(c(C)c1C)OC(C)(CCCC(C)CCCC(C)CCCC(C)C)CC2)P(=O)(OCC)OCC (stereo not drawn) [γ-toc-bpp(OEt), γ-tocopheryl bisphosphonic ester] | inhibited bone resorption | significant increase in trabecular bone volume | significantly increased bone formation | far superior to the free γToc; also recorded: even greater than that seen with the BMP-2 positive control
